Experiment [1] has as its system H9c2. Put plainly: cells. The format is functional, cell-based. The following applies: Rattus norvegicus, H9c2, Myocardium.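 Note: confirmatory concentration-response retest of ultra-high-throughput screening hits for modulation of myocardial damage; cell death induced by hydrogen peroxide oxidative stress; compound pretreatment for 60 min then peroxide exposure for 2 h; potency is for protecting the cells against peroxide damage rather than for killing them.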
For experiment [2], the target named is T1, Zinc finger protein mex-5 (Caenorhabditis elegans, UniProt Q9XUB2).
T1 sequence (Q9XUB2 whole entry): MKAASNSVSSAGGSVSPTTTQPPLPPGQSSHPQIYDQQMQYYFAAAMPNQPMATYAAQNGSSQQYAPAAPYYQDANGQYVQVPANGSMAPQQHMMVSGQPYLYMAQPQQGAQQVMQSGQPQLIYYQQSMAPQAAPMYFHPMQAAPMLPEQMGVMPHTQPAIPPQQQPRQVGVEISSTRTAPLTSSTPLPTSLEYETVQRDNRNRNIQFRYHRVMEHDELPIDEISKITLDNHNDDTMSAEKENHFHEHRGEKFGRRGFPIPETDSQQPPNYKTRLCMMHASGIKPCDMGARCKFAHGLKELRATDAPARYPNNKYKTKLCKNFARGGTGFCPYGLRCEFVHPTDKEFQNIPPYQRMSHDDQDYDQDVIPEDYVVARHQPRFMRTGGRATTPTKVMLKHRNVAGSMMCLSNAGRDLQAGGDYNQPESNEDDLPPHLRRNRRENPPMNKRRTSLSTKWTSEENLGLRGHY
Description: MEX-5/TCR-2 RNA interaction inhibitors, dose response, biochemical, C. elegans, fluorescence polarization (AID 1960). Background: In fluorescence polarisation assays a small probe gives low polarisation when free and higher when bound to something large.

For experiment [3], the target named is T2, RNA-binding protein pos-1 (Caenorhabditis elegans, UniProt G5EF15).
T2 sequence (G5EF15 whole entry): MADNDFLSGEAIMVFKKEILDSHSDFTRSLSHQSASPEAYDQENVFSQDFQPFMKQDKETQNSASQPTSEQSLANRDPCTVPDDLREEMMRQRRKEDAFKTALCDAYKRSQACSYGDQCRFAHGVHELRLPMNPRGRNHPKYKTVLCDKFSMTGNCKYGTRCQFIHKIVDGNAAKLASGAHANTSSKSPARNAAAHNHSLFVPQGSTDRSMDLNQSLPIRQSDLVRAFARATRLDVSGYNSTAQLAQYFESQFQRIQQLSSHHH
Description: inhibitors of POS-1/mex-3 RNA binding, dose response, biochemical, fluorescence polarization (AID 1964).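 Note: purified POS-1 fused to maltose binding protein made in E. coli; potency of compounds blocking POS-1 binding to fluorescent RNA.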

A short description of experiment [4]: Luminescence Cell-Based Dose Confirmation HTS to Identify Activators of 5'UTR Stem-Loop Driven Alpha-Synuclein mRNA Translation in H4 Neuroglioblastoma Cells. [Related pubchem assays: 1829 (Project Summary), 1814 (Primary HTS)]. The format is functional.
The test system of experiment [5] is H4. Put plainly: Luminescence Cell-Based Dose Response HTS to Identify Activators of 5'UTR Stem-Loop Driven Prion Protein mRNA Translation in H4 Neuroglioblastoma Cells. [Related pubchem assays: 1829 (Project Summary), 1814 (Primary HTS)]. The following applies: Homo sapiens. The format is functional.
A short description of experiment [6]: Luminescence Cell-Based Dose Response HTS to Identify Activators of Luciferase Translation or Activity in H4 […] Cells. [Related pubchem assays: 1829 (Project Summary), 1814 (Primary HTS)]. The format is functional.
The subject of experiment [7] is INS1. Description: beta cell apoptosis inhibitors, cytokine rescue, dose response, luminescence, retest (AID 449756).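 Note: cell death triggered by IL-1 beta plus TNF-alpha plus IFN-gamma mixture; protective hits raise ATP signal compared with cytokine alone wells.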 The following applies: Rattus norvegicus. The format is functional, cell-based.
A short description of experiment [8]: cells. The format is functional.
Experiment [9] can be described thus: Shn3 3'UTR reporter inhibitors, dose response, cell-based, Clone20 osteoblasts, firefly luciferase, cherry-picked (AID 624132).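 Note: firefly luciferase luminescence from reporter carrying the Shn3 3'UTR in osteoblasts.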 The format is functional.

Active and inactive are the calls of the source. Cut-off read from the data, not from the text of the source, for most assays here: actives have a measured EC50 and inactives only a lower limit.

One may read the IC50 as the concentration that gives 50% inhibition. For `COc1ccccc1NC(=O)c1cc(-c2cc(OC)c(OC)c(OC)c2)nc2ccccc12`, in experiment [1], the IC50 was > 79 µM (inactive).
Broadly, the EC50 is the concentration needed to bring the measured effect to its halfway point. For `COc1ccc(C2C=C(c3ccc(Br)s3)Nc3ncnn32)cc1OC` (stereo not drawn), the EC50 in experiment [2] was 6.36 µM (inconclusive); in experiment [3], 7.82 µM (active).
As for `Cc1ccc(S(=O)(=O)C(C#N)c2nc3ccccc3nc2N2CCC(C)CC2)cc1` (stereo not drawn), the EC50 in experiment [2] was 24.6 µM (active); in [3] it was > 300 µM (inconclusive).
Consider `Cc1ccc(S(=O)(=O)N2CCOCC2)cc1C(=O)Nc1ccc(S(=O)(=O)Nc2nccs2)cc1`, for which the EC50 in [2] and in [3] was > 300 µM (not active) throughout.
With `CCn1c(C)cc(/C=C2\C(=O)NC(=O)N(c3ccccc3C)C2=O)c1C`, the EC50 in experiment [2] and in [3] was > 300 µM (not active) each time.
Regarding `COc1ccc(NC2=C(Cl)C(=O)N(CCc3ccccc3)C2=O)c(OC)c1`, the concentration for a half-maximal effect (EC50) was 5.35 µM (active) in [4], 33.2 µM (active) in [5] and 8.34 µM (active) in experiment [6].
As a reminder, the AC50 is the concentration at which the activity in the assay is half-maximal. Consider `COc1ccccc1NCC(=O)N1CCN(S(=O)(=O)c2ccccc2)CC1`, for which the AC50 in [7] was > 260 µM (inactive).
`CCC(=O)OC1(C)C(=O)C=C2C=C(CCCC(=O)OC)OC=C2C1=O` (stereo not drawn): the values for the EC50 in [2] and in [3] were 22.8 µM (active) and 27.8 µM (active), respectively.
Turning to `Cc1ccc(/N=C/c2c(O)[nH]c3ccccc23)c([N+](=O)[O-])c1`, in [5], the EC50 was 22.3 µM (inconclusive).
Regarding `O=C(N/N=C/c1ccccn1)c1cccc([N+](=O)[O-])c1`, the IC50 is > 79 µM (inactive) in [1] and 22.2 µM (active) in experiment [8].
For `O=[N+]([O-])c1ccc2c(c1)nc(O)c1ccccc12`, the IC50 in experiment [1] is > 79 µM (inactive).
The same measure, in the same setting: then `COC(=O)c1cc(OC)c(OC)cc1NC(=O)c1ccc(C)o1`, with > 79 µM (inactive).
On to `COc1ccc(C(O)c2nc(-c3cccc(F)c3)cs2)cc1` (stereo not drawn), for which the AC50 in [9] was 41.9 µM (active).
For the molecule `Cc1ccc2c(c1)CCCN2C(=O)CCc1nc(O)c2ccccc2n1`, in [1], the IC50 is > 79 µM (inactive).
The same measure, in the same setting: then `Cn1c(=O)c2nc(NN=Cc3cccc(Br)c3)[nH]c2n(C)c1=O`, with > 79 µM (inactive).
On to `CCC(=O)OC1(C)C(=O)C=C2C=C(CCCCNC(=O)OC(C)(C)C)OC=C2C1=O` (stereo not drawn), for which the concentration giving a half-maximal response (EC50) is 28.4 µM (active) in experiment [2] and 33.5 µM (active) in experiment [3].
Regarding `CCOC(=O)c1[nH]c(C)c(C(=O)Nc2ccc(C)c(Cl)c2)c1C`, the results for the EC50 in [4], in experiment [5] and in experiment [6] were > 120 µM (not active), > 120 µM (not active) and 13.3 µM (active), respectively.
With `CC(=O)C(=NNc1ccc2c(c1)OCO2)C(C)=O`, the values for the EC50 in experiment [4] and in [6] were 13.9 µM (active) and 27.8 µM (active), respectively.
`O=C1N=C(Nc2ccccc2)S/C1=C\c1cccn1-c1ccccc1`: the results for the half-maximal effective concentration (EC50) in experiment [4], in experiment [5] and in experiment [6] were > 120 µM (not active), > 120 µM (not active) and 32.5 µM (active), respectively.
Regarding `Cc1cc(NC(=O)C2CCCCC2)nc2c1c(=O)oc1ccccc12`, the half-inhibitory concentration (IC50) in experiment [1] is 7.59 µM (active).
Same read-out and setting: then `Cc1cc(NC(=O)c2cccs2)cc(-c2nc3ncccc3o2)c1O`, with > 79 µM (inactive).
On to `Cc1ccc(NC(=O)C2=C(O)CCn3c2nc2ccccc23)cc1`, for which the figures for the concentration for a half-maximal effect (EC50) in experiment [4], in experiment [5] and in experiment [6] were > 120 µM (not active), > 60 µM (not active) and 12.5 µM (active), respectively.
Take `O=C1c2ccccc2C(=O)N1CCCc1nc(-c2ccncc2)no1`: the half-maximal effective concentration (EC50) in [2] and in [3] was > 300 µM (not active) in each case.
On to `COC(=O)c1ccccc1-n1c(CCC(=O)O)ccc1-c1ccccc1`, for which the EC50 in experiment [2] and in experiment [3] was > 300 µM (not active) throughout.
On to `COc1ccc(NC(=O)c2oc3ccc(S(=O)(=O)N4CCOCC4)cc3c2C)cc1`, for which the IC50 in experiment [1] is > 79 µM (inactive).

The values above are taken from ChEMBL document CHEMBL1201862, “PubChem BioAssay data set” (2004).
